# Measurements taken from patent publication US9353090B2, “Heterocyclic carboxylic acids as activators of soluble guanylate cyclase” (Boehringer Ingelheim International GmbH, priority 2014, dated 2016).
# Assays:
# [1] = physchem; conditions: kinetic from dmso stock
# [2] = target: human soluble guanylate cyclase alpha 1 and beta 1 subunits (sGC) (Homo sapiens (Human), UniProt Q02108+Q02153); test: sGC cellular activator assay (cGMP, HTRF), in the presence and absence of 50% human serum; assay type: cell-based; conditions: CHO cells stably expressing human sGC alpha 1/beta 1, preincubated with 40 microM ODQ; cGMP by HTRF; Table 2 does not state whether with or without 50% human serum
# In short: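 Heme-oxidized conditions: ODQ (40 microM, 1 h) pretreatment of CHO cells stably expressing human α1/β1 sGC, in buffer containing 0.1% BSA and IBMX.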
# [3] = Human liver microsome (HLM) metabolic stability assay; assay type: in vitro ADME; conditions: human liver microsomes
# In short: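 Compound at 1 uM incubated with human liver microsomes at 37° C. for 60 min after NADPH addition. Aliquots quenched in cold acetonitrile at 0, 5, 15, 30 and 60 min and analysed by LC/MS/MS. t1/2 from ln(% remaining) vs time slope; CLint, CLh and % Qh derived from it (n=1).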
# [4] = pH 2.2, aqueous buffer, Solubility (pH 2.2)
# [5] = pH 4.5, aqueous buffer, Solubility (pH 4.5)
# [6] = pH 6.8, aqueous buffer, Solubility (pH 6.8)
# human soluble guanylate cyclase alpha 1 and beta 1 subunits (sGC), sequence (Q02108 whole entry partner): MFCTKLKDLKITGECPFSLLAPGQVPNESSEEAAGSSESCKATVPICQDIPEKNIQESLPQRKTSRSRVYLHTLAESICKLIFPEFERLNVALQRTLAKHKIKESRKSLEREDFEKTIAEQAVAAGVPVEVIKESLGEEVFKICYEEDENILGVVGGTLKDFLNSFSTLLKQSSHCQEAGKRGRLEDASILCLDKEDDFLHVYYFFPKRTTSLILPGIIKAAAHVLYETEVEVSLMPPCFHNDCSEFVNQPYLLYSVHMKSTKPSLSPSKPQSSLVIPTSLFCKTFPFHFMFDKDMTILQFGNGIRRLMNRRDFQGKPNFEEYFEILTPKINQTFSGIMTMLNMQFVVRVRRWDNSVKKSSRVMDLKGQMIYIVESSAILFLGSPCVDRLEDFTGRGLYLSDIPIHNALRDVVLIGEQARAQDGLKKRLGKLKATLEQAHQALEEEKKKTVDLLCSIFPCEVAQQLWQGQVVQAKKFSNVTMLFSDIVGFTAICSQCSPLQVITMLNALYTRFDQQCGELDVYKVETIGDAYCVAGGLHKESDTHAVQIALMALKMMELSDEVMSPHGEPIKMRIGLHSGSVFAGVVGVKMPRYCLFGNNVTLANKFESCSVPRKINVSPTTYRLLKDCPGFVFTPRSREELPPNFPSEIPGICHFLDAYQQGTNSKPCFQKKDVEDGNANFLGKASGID
# human soluble guanylate cyclase alpha 1 and beta 1 subunits (sGC), sequence (Q02153 whole entry): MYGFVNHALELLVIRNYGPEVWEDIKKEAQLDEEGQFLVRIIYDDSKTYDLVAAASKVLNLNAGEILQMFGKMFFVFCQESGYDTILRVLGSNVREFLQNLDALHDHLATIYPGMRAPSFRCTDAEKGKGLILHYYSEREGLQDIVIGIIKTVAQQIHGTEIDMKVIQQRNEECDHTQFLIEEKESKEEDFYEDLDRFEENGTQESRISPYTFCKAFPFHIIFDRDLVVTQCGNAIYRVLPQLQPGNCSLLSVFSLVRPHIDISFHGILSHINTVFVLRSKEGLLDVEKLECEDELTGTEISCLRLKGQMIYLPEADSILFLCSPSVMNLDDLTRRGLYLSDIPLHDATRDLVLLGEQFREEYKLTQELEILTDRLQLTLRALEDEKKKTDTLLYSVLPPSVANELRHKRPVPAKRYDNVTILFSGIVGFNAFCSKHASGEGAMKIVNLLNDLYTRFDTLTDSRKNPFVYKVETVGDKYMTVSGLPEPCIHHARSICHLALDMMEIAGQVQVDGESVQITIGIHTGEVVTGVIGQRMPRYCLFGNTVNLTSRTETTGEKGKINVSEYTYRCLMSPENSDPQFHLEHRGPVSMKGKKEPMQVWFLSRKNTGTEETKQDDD
SMILES,"solubility at 24 h [1, 4] [mg/mL]","solubility at 24 h [1, 5] [mg/mL]","solubility at 24 h [1, 6] [mg/mL]",EC50 [2] [µM],"Metabolic stability (Qh %), % hepatic blood flow [3] [%]"
Cc1ccc(OCc2ccc3c(c2)CCN(C2COC2)CC3)c(-c2csc(N3C[C@@H]4C[C@]4(C(=O)O)C3)n2)c1 [Compound 148],0.093,0.0084,0.0011,0.067,<24
COC[C@H]1N(c2cccc(-c3cc(C)ccc3OCc3ccc4c(c3C)CCN(C3CCOCC3)C4)n2)C[C@@H]2C[C@@]21C(=O)O [Compound 218],0.144,0.139,0.134,0.081,<24
Cc1ccc(OCc2ccc3c(c2C)CCN(C2CCOCC2)C3=O)c(-c2cccc(N3CC[C@@]4(C(=O)O)C[C@H]4C3)n2)c1 [Compound 202],0.084,0.01,0.0001,0.009,62
CO[C@H]1CN(c2nc(-c3cccc(C)c3OCc3ccc4c(c3C)CCN(C3COC3)CC4)cs2)CC[C@H]1C(=O)O [Compound 287],0.12,0.0727,0.0717,0.013,<24
CO[C@H]1CN(c2cccc(-c3cc(C)ccc3OCc3ccc4c(c3C)CCN(C3CCOCC3)CC4)n2)CC[C@H]1C(=O)O [Compound 73],0.11,0.093,0.069,0.057,28
COC[C@H]1N(c2cccc(-c3cccc(C)c3OCc3ccc4c(c3C)CN(C3CCOCC3)C4)n2)C[C@@H]2C[C@@]21C(=O)O [Compound 223],0.145,0.14,0.132,0.023,<24
COC[C@H]1N(c2cccc(-c3cccc(C)c3OCc3cc4c(c(OC)c3)CN(C3CCOCC3)CC4)n2)C[C@@H]2C[C@@]21C(=O)O [Compound 57],0.12,0.099,0.078,0.021,<24
CO[C@@H]1CN(c2nc(-c3cccc(C)c3OCc3ccc4c(c3F)CCN(C3CCOCC3)CC4)cs2)CC[C@@H]1C(=O)O [Compound 266],0.109,0.0631,0.0594,0.005,<24
Cc1cc(COc2c(C)cccc2-c2csc(N3CC[C@@]4(C(=O)O)C[C@H]4C3)n2)c(C)c2c1CN(C1CCOCC1)CC2 [Compound 101],0.12,0.079,0.038,0.003,61
COc1cc(COc2ccc(C)cc2-c2cccc(N3CC[C@H](C(=O)O)[C@H](OC)C3)n2)cc2c1CN(C1CCOCC1)CC2 [Compound 80],0.15,0.13,0.092,0.023,<24
CO[C@H]1CN(c2nc(-c3cc(C)ccc3OCc3ccc4c(c3C)CCN(C3CCOCC3)CC4)cs2)CC[C@H]1C(=O)O [Compound 182],0.12,0.061,0.055,0.026,<24
COC[C@H]1N(c2cccc(-c3cccc(C)c3OCc3ccc4c(c3C)CCN(C3COC3)C4)n2)C[C@@H]2C[C@@]21C(=O)O [Compound 47],0.11,0.095,0.084,0.017,<24
COC[C@H]1N(c2cccc(-c3cccc(C(F)(F)F)c3OCc3cc(C)c4c(c3)CCN(C3COC3)C4)n2)C[C@@H]2C[C@@]21C(=O)O [Compound 227],0.142,0.128,0.138,0.009,30
Cc1c(COc2ccccc2-c2cccc(N3CC[C@@]4(C(=O)O)C[C@H]4C3)n2)ccc2c1CCN([C@H]1CCCOC1)C2 [Compound 11],0.14,0.11,0.046,0.004,53
CO[C@H]1CN(c2cccc(-c3cc(C)ccc3OCc3cc(C)c4c(c3)CCN(C3CCOCC3)C4)n2)CC[C@H]1C(=O)O [Compound 72],0.12,0.1,0.074,0.064,<24
Cc1ccc(OCc2ccc3c(c2)CCN(C2CCOCC2)C3)c(-c2cccc(N3CC[C@@]4(C(=O)O)C[C@H]4C3)n2)c1 [Compound 16],0.13,0.096,0.041,0.008,28
CO[C@H]1CN(c2nc(-c3cccc(Cl)c3OCc3ccc4c(c3C)CCN(C3CCOCC3)C4)cs2)CC[C@H]1C(=O)O [Compound 207],0.143,0.0886,0.0768,0.008,<24
COc1cc(COc2ccc(C)cc2-c2csc(N3CC[C@@H](C(=O)O)[C@@H](OC)C3)n2)c(F)c2c1CN(C1CCOCC1)CC2 [Compound 271],0.134,0.0666,0.0328,0.005,<24
CO[C@H]1CN(c2cccc(-c3cccc(C)c3OCc3ccc4c(c3C)CCN(C3CCOCC3)CC4)n2)CC[C@H]1C(=O)O [Compound 197],0.11,0.073,0.053,0.009,47
CO[C@H]1CN(c2cccc(-c3cc(C)ccc3OCc3ccc4c(c3C)CCN(C3CCOCC3)C4=O)n2)CC[C@H]1C(=O)O [Compound 205],0.109,0.0426,0.0108,0.052,<24
CO[C@H]1CN(c2cccc(-c3cccc(C)c3OCc3cc(F)c4c(c3)CCN(C3CCOCC3)CC4)n2)CC[C@H]1C(=O)O [Compound 273],0.12,0.0807,0.0643,0.005,<24
CCOC[C@@H]1N(c2cccc(-c3cccc(C)c3OCc3cc(C)c4c(c3)CCN(C3CCOCC3)C4)n2)C[C@@H]2C[C@@]21C(=O)O [Compound 316],0.147,0.149,0.142,0.222,39
Cc1cc(COc2c(C)cccc2-c2csc(N3CC[C@@]4(C(=O)O)C[C@H]4C3)n2)cc2c1CN(C1CCCOC1)CC2 (some centres unmarked) [Compound 94],0.12,0.055,0.019,0.003,42
Cc1cccc(-c2cccc(N3CC4OCC3C4C(=O)O)n2)c1OCc1ccc2c(c1C)CCN(C1CCOCC1)C2 (centres unmarked) [Compound 214],0.118,0.107,0.0879,0.243,<24
COC[C@H]1N(c2cccc(-c3cccc(C)c3OCc3cc(C#N)c4c(c3)CCN(C3CCOCC3)C4)n2)C[C@@H]2C[C@@]21C(=O)O [Compound 217],0.167,0.162,0.158,0.04,44
